Reference: ChEMBL document CHEMBL1136397, “5-Aryl thiazolidine-2,4-diones as selective PPARgamma agonists” (Bioorg Med Chem Lett, 2003)

Columns and labels:
[1] = molecular target: T1, Peroxisome proliferator-activated receptor alpha (Homo sapiens, UniProt Q07869); test: In vitro agonist activity tested for transactivation in human PPAR alpha-Gal4 chimeric COS-1 cells; format: functional, cell-based
T1 sequence (Q07869 whole entry): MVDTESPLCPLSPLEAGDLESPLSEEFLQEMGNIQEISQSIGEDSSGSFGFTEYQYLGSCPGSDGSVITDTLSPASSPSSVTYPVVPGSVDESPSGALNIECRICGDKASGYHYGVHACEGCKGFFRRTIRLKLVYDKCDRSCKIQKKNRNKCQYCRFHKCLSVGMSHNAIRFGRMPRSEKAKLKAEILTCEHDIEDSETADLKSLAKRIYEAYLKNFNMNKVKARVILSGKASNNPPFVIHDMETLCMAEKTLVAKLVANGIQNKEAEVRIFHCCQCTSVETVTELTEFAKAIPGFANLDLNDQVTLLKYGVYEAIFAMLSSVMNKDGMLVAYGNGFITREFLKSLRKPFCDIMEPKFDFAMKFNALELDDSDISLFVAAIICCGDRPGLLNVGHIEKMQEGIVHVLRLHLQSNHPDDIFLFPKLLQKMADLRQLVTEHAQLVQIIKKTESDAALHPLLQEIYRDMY

[2] = molecular target: T2, Peroxisome proliferator-activated receptor gamma (Homo sapiens, UniProt P37231)
T2 sequence (P37231 whole entry): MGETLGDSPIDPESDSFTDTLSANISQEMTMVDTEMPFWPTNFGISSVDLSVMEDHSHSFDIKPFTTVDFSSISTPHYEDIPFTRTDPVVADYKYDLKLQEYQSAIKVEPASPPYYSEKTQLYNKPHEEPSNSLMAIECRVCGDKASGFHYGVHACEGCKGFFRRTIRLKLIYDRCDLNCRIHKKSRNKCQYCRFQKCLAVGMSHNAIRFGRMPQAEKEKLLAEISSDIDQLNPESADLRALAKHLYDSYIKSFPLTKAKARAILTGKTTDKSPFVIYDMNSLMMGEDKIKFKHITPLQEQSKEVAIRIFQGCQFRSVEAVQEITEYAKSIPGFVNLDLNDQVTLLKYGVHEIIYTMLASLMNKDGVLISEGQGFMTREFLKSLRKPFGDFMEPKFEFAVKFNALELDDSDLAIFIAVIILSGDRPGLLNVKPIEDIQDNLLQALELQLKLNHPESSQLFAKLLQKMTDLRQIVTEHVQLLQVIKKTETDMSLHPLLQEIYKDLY
Description: In vitro agonist activity tested for transactivation in human PPAR gamma-Gal4 chimeric COS-1 cells

[3] = molecular target: T3, Peroxisome proliferator-activated receptor delta (Homo sapiens, UniProt Q03181)
T3 sequence (Q03181 whole entry): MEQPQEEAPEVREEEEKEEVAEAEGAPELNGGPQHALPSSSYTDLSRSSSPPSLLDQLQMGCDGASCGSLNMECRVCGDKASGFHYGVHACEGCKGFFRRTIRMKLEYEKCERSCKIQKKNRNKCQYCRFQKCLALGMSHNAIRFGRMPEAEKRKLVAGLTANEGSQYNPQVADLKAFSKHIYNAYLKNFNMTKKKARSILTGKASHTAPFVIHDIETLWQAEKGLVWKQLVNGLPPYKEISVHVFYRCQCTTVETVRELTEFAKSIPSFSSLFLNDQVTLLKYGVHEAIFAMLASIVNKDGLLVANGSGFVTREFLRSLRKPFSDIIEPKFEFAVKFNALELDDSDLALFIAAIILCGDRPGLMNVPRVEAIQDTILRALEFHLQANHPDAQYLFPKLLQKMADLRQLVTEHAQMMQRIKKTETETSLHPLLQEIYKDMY
Description: In vitro binding affinity against human PPAR delta (peroxisome proliferator-activated delta receptor)

[4] = molecular target: T1, Peroxisome proliferator-activated receptor alpha; test: In vitro binding affinity against human PPAR alpha (peroxisome proliferator-activated alpha receptor)
[5] = molecular target: T2, Peroxisome proliferator-activated receptor gamma; remark: listed apart in the source
Description: In vitro binding affinity against human PPAR gamma (peroxisome proliferator-activated gamma receptor)

[6] = molecular target: T3, Peroxisome proliferator-activated receptor delta; remark: listed apart in the source
Description: In vitro agonist activity tested for transactivation in human PPAR delta-GAL4 chimeric COS-1 cells

[7] = Half-life was determined in rat after intravenous administration (0.5 mg/kg); format: ADME, organism-based; conditions: in vivo
[8] = (§1) Plasma clearance was determined in rat after intravenous administration (0.5 mg/kg); format: ADME, organism-based; conditions: read-out: Clp
[9] = In vivo triglyceride correction was determined in male db/db mice after administration at 10 mg/kg; format: functional, Mus musculus
[10] = In vivo glucose correction was determined in male db/db mice after administration at 10 mg/kg; format: functional, Mus musculus
Rattus norvegicus [11] = test: Dose-normalized AUC was determined in rat after peroral administration (2 mg/kg); format: ADME, organism-based; conditions: in vivo, po
[12] = Oral bioavailability in rat (dose 2 mg/kg); format: ADME, organism-based; conditions: in vivo
Mus musculus [13] = test: In vivo glucose correction was determined in male db/db mice after administration at 5 mg/kg; format: functional
Mus musculus [14] = test: In vivo triglyceride correction was determined in male db/db mice after administration at 5 mg/kg; format: functional
Rattus norvegicus [15] = test: as §1; format: functional, organism-based

CCCc1cc(Oc2ccc(NS(=O)(=O)c3ccc(C)cc3)cc2)ccc1OCCCOc1ccc(C2SC(=O)NC2=O)cc1 (stereo unspecified)
EC50 [1]: > 3 µM
EC50 [2]: 0.5 µM
IC50 [3]: > 50 µM
IC50 [4]: > 50 µM
IC50 [5]: 5.7 µM
EC50 [6]: > 3 µM

CCCc1cc(Oc2ccc(F)cc2)ccc1OCCCOc1ccc(C2SC(=O)NC2=O)cc1 (stereo unspecified)
half-life [7]: 2.1 h
clearance [8]: 3.6 mL/min/kg
EC50 [1]: > 50 µM
IC50 [3]: > 50 µM
IC50 [4]: > 50 µM
Triglyceride correction [9]: 71%
Glucose correction [10]: 78%
AUC (Rattus norvegicus [11]): 5.97 µM·h
bioavailability [12]: 63%
EC50 [6]: > 50 µM

CCCc1cc(Oc2ccc(C3CCCC3)cc2)ccc1OCCCOc1ccc(C2SC(=O)NC2=O)cc1 (stereo unspecified)
IC50 [3]: > 50 µM
IC50 [4]: > 50 µM
IC50 [5]: 0.18 µM

O=C1NC(=O)C(c2ccc(OCCCOc3ccc(Oc4ccccc4)cc3)cc2)S1 (stereo unspecified)
IC50 [3]: > 50 µM
IC50 [4]: > 50 µM
IC50 [5]: > 15 µM

CC(C)Cc1cc(Oc2ccccc2)ccc1OCCCOc1ccc(C2SC(=O)NC2=O)cc1 (stereo unspecified)
IC50 [3]: 0.16 µM
IC50 [4]: 0.34 µM

CCCc1cc(Oc2ccc(C(F)(F)F)cc2)ccc1OCCCOc1ccc(C2SC(=O)NC2=O)cc1 (stereo unspecified)
IC50 [3]: > 50 µM
IC50 [4]: > 50 µM
IC50 [5]: 1.8 µM

CCCc1cc(Oc2ccccc2)ccc1OCCCOc1ccc(C2SC(=O)NC2=O)cc1C (stereo unspecified)
EC50 [1]: > 3 µM
EC50 [2]: 0.1 µM
IC50 [3]: 6 µM
IC50 [4]: > 50 µM
IC50 [5]: 6.7 µM
EC50 [6]: > 3 µM

CCCc1cc(Oc2ccc(-c3ccccc3)cc2)ccc1OCCCOc1ccc(C2SC(=O)NC2=O)cc1 (stereo unspecified)
half-life [7]: 2.2 h
clearance [8]: 2.8 mL/min/kg
EC50 [1]: > 3 µM
EC50 [2]: 0.02 µM
IC50 [3]: > 50 µM
IC50 [4]: > 50 µM
AUC (Rattus norvegicus [11]): 0.7 µM·h
IC50 [5]: 0.13 µM
bioavailability [12]: 6%
EC50 [6]: > 3 µM

CCCc1cc(Oc2ccccc2)ccc1OCCCOc1ccc(C2SC(=O)NC2=O)cc1OC (stereo unspecified)
EC50 [1]: > 3 µM
EC50 [2]: 0.4 µM
IC50 [3]: > 10 µM
IC50 [4]: > 50 µM
IC50 [5]: 1 µM
EC50 [6]: > 3 µM

CCCc1cc(Oc2ccc(C)cc2)ccc1OCCCOc1ccc(C2SC(=O)NC2=O)cc1 (stereo unspecified)
IC50 [3]: > 50 µM
IC50 [4]: > 50 µM
IC50 [5]: 2.6 µM

CCCc1cc(Oc2ccccc2)ccc1OCCCOc1ccc(C2SC(=O)NC2=O)cc1CCC (stereo unspecified)
EC50 [1]: > 3 µM
EC50 [2]: 0.2 µM
IC50 [3]: 1 µM
IC50 [4]: > 50 µM
IC50 [5]: 0.12 µM
EC50 [6]: 3 µM

CCCc1cc(Oc2ccccc2)ccc1OCCCOc1ccc(C2SC(=O)NC2=O)cc1Cl (stereo unspecified)
EC50 [1]: > 3 µM
EC50 [2]: 0.7 µM
IC50 [3]: 0.88 µM
IC50 [4]: > 50 µM
IC50 [5]: 0.43 µM
EC50 [6]: > 3 µM

CCCc1cc(Oc2ccc(S(C)(=O)=O)cc2)ccc1OCCCOc1ccc(C2SC(=O)NC2=O)cc1 (stereo unspecified)
Glucose correction (Mus musculus [13]): 62%
Triglyceride correction (Mus musculus [14]): 55%
half-life [7]: 2.8 h
CL (mL.min-1.kg-1) (Rattus norvegicus [15]): 2.1
EC50 [1]: > 3 µM
EC50 [2]: 0.12 µM
IC50 [3]: > 50 µM
IC50 [4]: > 50 µM
Triglyceride correction [9]: 78%
Glucose correction [10]: 86%
AUC (Rattus norvegicus [11]): 11.8 µM·h
IC50 [5]: 0.25 µM
bioavailability [12]: 84%
EC50 [6]: > 3 µM

CCCc1cc(Oc2ccc(NS(C)(=O)=O)cc2)ccc1OCCCOc1ccc(C2SC(=O)NC2=O)cc1 (stereo unspecified)
IC50 [3]: > 50 µM
IC50 [4]: > 50 µM
IC50 [5]: 2 µM

CCCc1cc(Oc2ccc(OC)cc2)ccc1OCCCOc1ccc(C2SC(=O)NC2=O)cc1 (stereo unspecified)
half-life [7]: 2.8 h
clearance [8]: 1.1 mL/min/kg
EC50 [1]: > 10 µM
IC50 [3]: > 50 µM
IC50 [4]: > 50 µM
Triglyceride correction [9]: 67%
Glucose correction [10]: 67%
AUC (Rattus norvegicus [11]): 11.7 µM·h
IC50 [5]: 0.46 µM
bioavailability [12]: 39%
EC50 [6]: > 3 µM

CCCc1cc(Oc2ccccc2)ccc1OCCCOc1ccc(C2SC(=O)NC2=O)cc1 (stereo unspecified)
half-life [7]: 2.3 h
clearance [8]: 2.3 mL/min/kg
EC50 [1]: > 3 µM
IC50 [3]: > 10 µM
IC50 [4]: 50 µM
Triglyceride correction [9]: 74%
Glucose correction [10]: 77%
AUC (Rattus norvegicus [11]): 13.8 µM·h
bioavailability [12]: 89%
EC50 [6]: > 3 µM

CCCc1cc(Oc2ccccc2)ccc1OCCCOc1ccc(C2SC(=O)NC2=O)cc1F (stereo unspecified)
half-life [7]: 1.7 h
clearance [8]: 2.9 mL/min/kg
EC50 [1]: > 3 µM
EC50 [2]: 0.3 µM
IC50 [3]: 2 µM
Triglyceride correction [9]: 50%
Glucose correction [10]: 43%
AUC (Rattus norvegicus [11]): 7.43 µM·h
bioavailability [12]: 63%
EC50 [6]: > 3 µM

CCCc1cc(Oc2ccccc2)ccc1OCCCCOc1ccc(C2SC(=O)NC2=O)cc1 (stereo unspecified)
EC50 [1]: > 3 µM
IC50 [3]: > 10 µM
IC50 [4]: > 50 µM
IC50 [5]: 3 µM
EC50 [6]: > 3 µM

CCCc1cc(Oc2ccc(CC(C)C)cc2)ccc1OCCCOc1ccc(C2SC(=O)NC2=O)cc1 (stereo unspecified)
EC50 [1]: > 3 µM
EC50 [2]: 0.03 µM
IC50 [3]: > 50 µM
IC50 [4]: > 50 µM
IC50 [5]: 0.13 µM
EC50 [6]: > 3 µM

CN(CCOc1ccc(CC2SC(=O)NC2=O)cc1)c1ccccn1 (stereo unspecified) [ROSIGLITAZONE]
Glucose correction (Mus musculus [13]): 46%
Triglyceride correction (Mus musculus [14]): 52%
half-life [7]: 1.2 h
clearance [8]: 2.7 mL/min/kg
AUC (Rattus norvegicus [11]): 16.4 µM·h
bioavailability [12]: 85%

CCCc1cc(Oc2ccc(Cl)cc2)ccc1OCCCOc1ccc(C2SC(=O)NC2=O)cc1 (stereo unspecified)
half-life [7]: 5.4 h
clearance [8]: 2.9 mL/min/kg
EC50 [1]: 3 µM
EC50 [2]: 0.08 µM
IC50 [3]: > 50 µM
IC50 [4]: > 50 µM
Triglyceride correction [9]: 80%
Glucose correction [10]: 86%
AUC (Rattus norvegicus [11]): 6.7 µM·h
IC50 [5]: 2 µM
bioavailability [12]: 58%
EC50 [6]: > 3 µM
